{"source": "patent US20070042046A1", "about": "“Methods for the treatment of cancer” (priority 2003, published 2007)", "key": {"[1]": {"assay": "Animal mortality and survival after intra-tumoural injection in tumour-bearing nude mice", "assay_type": "in vivo", "conditions": "for animal mortality rate: intratumoural", "experimental": "The following protocol was adopted: • 1. Culture of human cells and implantation of the tumour cells as solid tumours in nude mice: The carcinoma cell-line was cultured in RPMI and Ham's F-12 media respectively with 10% fetal calf serum in a CO2 incubator and subcultured every two to three days until growing to a number enough for implantation in animals. The cells were then implanted as solid tumors in nude mice]. The cells were collected in HBSS (Hanks balanced salt solution). One hundred microliters of cell suspension in HBSS (5×10^6 cells) was injected subcutaneously into right gluteal region of nude mice (female, 6 to 9 week old nude mice with average body weight of 25 g, housed in pathogen-free conditions) using a 25-gauge needle. • 2. Animals groups: Animals were randomly grouped into control 1 (injected with peanut oil), control 2 (injected with porous silicon without drug), free chlorambucil (drug injected without porous silicon directly into tumour or injected via intraperitoneal route) and chlorambucil impregnated porous silicon groups. Each group included 16 to 20 animals. • 3. Injection of chlorambucil impregnated porous silicon in transplanted tumours: On day 14 after implantation of tumours (diameter of the tumour about lcm), the chlorambucil impregnated formulation was applied to the centre of the tumours. • 4. Tumour volumetrics: The sizes of implanted tumours in nude mice was estimated every 3 days. The largest and smallest diameters were measured by a vernier caliper and tumour volumes estimated according the formula: V=½ ab^2, where a and b are largest and smallest tumour diameters respectively, and V is the tumour volume in cm^3.\nThe effects of intra-tumoural administered chlorambucil loaded porous silicon on the growth of the tumour was studied and compared with control and systemic therapy groups. The body weight of the animals was estimated by subtracting the tumour volume (cm3) from the total body weight (g) every 3 days. The survival time of each experimental animal was recorded. […]"}, "HeLa cells": {"tested_on": "HeLa cells", "assay": "Live/Dead cell assay", "conditions": "24 hours, chlorambucil 90 μg/ml", "procedure": "Cells with formulated drug were collected at 24 hours after incubation, placed into sterile plastic tubes and centrifuged. The supernatants were aspirated out and the cell pellets were washed gently with copious amount of PBS and centrifuged to remove any excipient. The cell pellet was dislodged gently and incubated with 300 μl of Live/dead cell assay reagent and incubated for 45 minutes on a rocker with gentle shaking (20 shakes per minute). At the end of incubation the cells were spun down, washed twice with PBS, reconstituted with 1 ml of PBS and transferred into a plate to capture the images of Live/Dead cells using fluorescent microscope.\nThe Live/Dead cell assay was performed on HeLa cell cultures grown on collagen coated plated and treated with various forms of porous silicon (AN^+/SE, loaded/unloaded, pre-formulated/formulated).\nThe procedure was performed on adherent cells after the floating cells were washed off. […] Therefore, percentage of live and dead cells was calculated from the adherent cells stuck to the bottom of the wells. Each sample was run in triplicate wells and one microscopic field image from each well was captured and the live and dead cells were counted to get an average % of cytotoxicity."}}, "data": [{"smiles": "O=C(O)CCCc1ccc(N(CCCl)CCCl)cc1", "note": "[chlorambucil, 4-[bis(2-chloroethyl)amino}benzenebutanoic acid]", "values": [{"measurement": "animal mortality rate", "setting": "[1]; 720 ug", "result": 50, "unit": "%"}, {"measurement": "animal mortality rate", "setting": "[1]; 1500 ug (2×LD50)", "result": 90, "unit": "%"}, {"measurement": "LD50", "setting": "[1]; nude mice, free drug", "result": 720, "unit": "µg"}, {"measurement": "dead cell percentage (cytotoxicity)", "setting": "HeLa cells", "result": "≥ 95", "unit": "%"}]}]}
